# Experiments:
# [1] = system: mechanical skin irritation; test: Thermal conductivity of the skin (microcirculation), skin cut by scraping, group 1; type: in vivo, healthy female volunteers; conditions: for % Variation, treated area/untreated area 1 (microcirculation): 4% (weight/volume) in distilled water, mean ± standard error; for % Variation, treated area/untreated area 1 (microcirculation) / Mean values of thermal conductivity (K), treated area: n=6
# Procedure: (§1) The effect of trimethylglycine on the skin was studied by measuring the thermal conductivity of the skin by a method described by A. Dittmar in Cutaneous investigation in health and disease. Non-invasive methods and instrumentation, ed. J. L. Lévêque, Marcel Dekker Inc., New York-Basel, 1989. The method correlates directly with microcirculation on the skin. Thermal conductivity (K) is measured from the skin with a specific Hematron® thermal sensor and transformed into an electric signal, which is recorded by a recorder. In thermal conductivity (ΔK), a significant level of variation is 0.1 mW/cm.°C.
# (§2) The test was conducted on two test groups, each one of which comprised six healthy female volunteers. In the first test group (group 1), four cutaneous test areas were defined on the arm of each subject, and microcirculation was first measured for 30 minutes before the preparation was added. The skin was then cut by scraping in all the four areas, and onto the skin was pressed a filter paper into which a solution had been absorbed that contained 14 μl/cm^2 of 4% (weight/volume) trimethylglycine in distilled water, or only distilled water (placebo). Subsequently, microcirculation was measured for 60 minutes at the erythematous, damaged points on the skin, treated with the solution.
# (§3) The thermal conductivity values measured on each volunteer subject are shown in table 1 (group 1) and table 2 (group 2). Tables 1 and 2 show the mean values (n=6) of thermal conductivity (K expressed as mW/cm .°C.) in the treated area, placebo area, and untreated areas at different instances of measuring. In tables 1 and 2, the treated area means an area treated with a preparation containing trimethylglycine; untreated area 1 is an untreated area that is symmetric with the area treated with the preparation containing trimethylglycine; the placebo area means an area treated with a placebo; and untreated area 2 is an untreated area that is symmetric with the area treated with the placebo.
# (§4) Per /cent (%) variations between the treated area and untreated area 1, and the placebo area and untreated area 2 were calculated for each volunteer subject 30 and 60 min after application of the product. The variations were calculated using the formula [formula]
# thermal skin irritation = test: Thermal conductivity of the skin (microcirculation), infrared irradiation, group 2; type: in vivo, healthy female volunteers
# Procedure: as §1
# In the second test group (group 2), the subjects' microcirculation was measured at the erythema in the same way as above, but the irritation was here caused by 30-minute infrared irradiation (IR Philips 250 S lamps, spectrum 700 to 2500 nm, power 250 W, light energy 70 mW/cm^2, irradiation area 14 cm^2) in the four cutaneous areas defined on the upper back.
# as §3, §4
# skin = test: Tolerance of the preparation by the subjects in both tests; type: in vivo, healthy female volunteers; conditions: topical 4% (weight/volume) preparation
# Procedure: as §2, with “solution. In the second test group (group 2), the subjects' microcirculation was measured at the erythema in the same way as above, but the irritation was here caused by 30-minute infrared irradiation (IR Philips 250 S lamps, spectrum 700 to 2500 nm, power 250 W, light energy 70 mW/cm^2, irradiation area 14 cm^2) in the four cutaneous areas defined on the upper back.” for “solution.”
# [2] = pure form; in water and in lower alcohols, such as methanol and ethanol; cited from earlier work
smiles,measurement,setting,value
C[N+](C)(C)CC(=O)[O-] [trimethylglycine],"% Variation, treated area/untreated area 1 (microcirculation)","[1]; group 1, t30 min",-8.9±8.6%
same,"% Variation, treated area/untreated area 1 (microcirculation)","[1]; group 1, t60 min",-15.0±8.8%
same,Effect against mechanical erythema as compared with the placebo,"[1]; group 1, 4% (weight/volume) in water, effect detected 60 min after the application",effective against mechanical erythema
same,"Mean values of thermal conductivity (K), treated area","[1]; t0, before application of product, arm skin",3.82 ± 0.59 mW/cm · ° C.
same,"Mean values of thermal conductivity (K), treated area","[1]; t30, 30 min after application of 4% (weight/volume) trimethylglycine in distilled water, 14 μl/cm^2, skin cut by scraping",3.66 ± 0.69 mW/cm · ° C.
same,"Mean values of thermal conductivity (K), treated area","[1]; t60, 60 min after application of 4% (weight/volume) trimethylglycine in distilled water, 14 μl/cm^2, skin cut by scraping",3.42 ± 0.41 mW/cm · ° C.
same,"% Variation, treated area/untreated area 1 (microcirculation)","thermal skin irritation; group 2, t30 min, 4% (weight/volume) in distilled water, mean ± standard error, n=6",23.5±11.8%
same,Effect on thermal erythema,"thermal skin irritation; group 2, preparation containing trimethylglycine",no effect on thermal erythema
same,"Mean values of thermal conductivity (K), treated area","thermal skin irritation; t0, before application of product, upper back, n=6",3.13 ± 0.30 mW/cm · ° C.
same,"Mean values of thermal conductivity (K), treated area","thermal skin irritation; t30, 30 min after application of 4% (weight/volume) trimethylglycine in distilled water, 30-minute infrared irradiation, n=6",3.85 ± 0.31 mW/cm · ° C.
same,"Mean values of thermal conductivity (K), treated area","thermal skin irritation; t60, 60 min after application of 4% (weight/volume) trimethylglycine in distilled water, 30-minute infrared irradiation, n=6",3.60 ± 0.38 mW/cm · ° C.
same,Tolerance / sensitivity of the subjects,skin,tolerated the trimethylglycine preparation well
same,Solubility,[2],readily soluble

# Source: patent publication US20020018788A1, “PREPARATION PROTECTING SKIN FROM MECHANICAL IRRITATION” (priority 1996, published 2002)
